Literature values, collected in patent publication US20110021626A1, “ENCAPSULATION OF VITAMIN C INTO WATER SOLUBLE DENDRIMERS” (CENTRE NATIONAL DE LA RECHERCHE SCIENTIFIQUE - CNRS, priority 2008, published 2011).

Conditions: at 25° C. in water

With O=C1O[C@H]([C@@H](O)CO)C(O)=C1O [ascorbic acid] as the compound, how does the pKa read?
The pKa was 4,11.
